Experimental data taken from ChEMBL document CHEMBL1130586 (Bioorg Med Chem Lett, 1998).

Tests used:
[1] = target: Histamine H1 receptor (Cavia porcellus) (UniProt P31389); assay: Compound was tested for its […] in the presence of mepyramine (1-1000 nM) against Histamine H1 receptor of guinea pig aorta.; type: functional
[2] = target: Histamine H1 receptor (Cavia porcellus) (UniProt P31389); assay: Partial agonist activity with mepyramine against Histamine H1 receptor in guinea pig ileum.; type: functional, tissue-based
[3] = target: Histamine H1 receptor (Cavia porcellus) (UniProt P31389); assay: Partial agonist activity against Histamine H1 receptor in guinea pig aorta; type: functional, tissue-based
[4] = target: Histamine H1 receptor (Cavia porcellus) (UniProt P31389); assay: Partial agonist activity against Histamine H1 receptor in guinea pig ileum.; type: functional, tissue-based
[5] = target: Histamine H1 receptor (Cavia porcellus) (UniProt P31389); assay: Compound was tested for binding affinity against guinea pig ileum; type: tissue-based
[6] = target: Muscarinic acetylcholine receptor M3 (Cavia porcellus, UniProt Q8VH26); assay: Compound was tested for its agonist activity against M3-acetylcholine receptor of guinea pig ileum.; type: functional, tissue-based; details: read-out: pA2 (converted)
[7] = target: Histamine H1 receptor (Cavia porcellus) (UniProt P31389); assay: Relative potency against Histamine H1 receptor in guinea pig ileum.; type: functional, tissue-based
[8] = target: Histamine H2 receptor (Cavia porcellus) (UniProt P47747); assay: Compound was tested for agonist activity against histamine H2 receptor of guinea pig atrium; type: functional, tissue-based; details: Cardiac atrium
Histamine H3 receptor = Histamine H3 receptor (Cavia porcellus, UniProt Q9JI35); assay: Compound was tested for the agonist activity against histamine H3 receptor of guinea pig ileum; type: functional, tissue-based; details: read-out: pA2 (converted)
Histamine H1 receptor [9] = target: T1, Histamine H1 receptor (Cavia porcellus, UniProt P31389); assay: Contractile effects antagonized by mepyramine (0.3-100 nM) against Histamine H1 receptor in guinea pig ileum; type: functional, tissue-based; details: read-out: pA2 (converted)
Histamine H1 receptor [10] = target: T1, Histamine H1 receptor; assay: Compound was tested for the contractile effects antagonized by mepyramine (1-1000 nM) against Histamine H1 receptor of guinea pig aorta.; type: functional; details: read-out: pA2 (converted)
[11] = target: Histamine H1 receptor (Cavia porcellus) (UniProt P31389); assay: Relative potency against Histamine H1 receptor of guinea pig aorta; type: functional, tissue-based
[12] = target: Histamine H1 receptor (Cavia porcellus) (UniProt P31389); assay: Compound was tested for its partial agonist activity in the presence of 10 nM mepyramine against Histamine H1 receptor in guinea pig ileum.; type: functional, tissue-based
[13] = target: Histamine H1 receptor (Cavia porcellus) (UniProt P31389); assay: Compound was tested for its partial agonist activity in the presence of 100 nM mepyramine against Histamine H1 receptor in guinea pig ileum.; type: functional, tissue-based
[14] = target: Histamine H1 receptor (Cavia porcellus) (UniProt P31389); assay: Compound was tested for its partial agonist activity in the presence of 1 nM mepyramine against Histamine H1 receptor in guinea pig ileum.; type: functional, tissue-based

T1 sequence (P31389 whole entry): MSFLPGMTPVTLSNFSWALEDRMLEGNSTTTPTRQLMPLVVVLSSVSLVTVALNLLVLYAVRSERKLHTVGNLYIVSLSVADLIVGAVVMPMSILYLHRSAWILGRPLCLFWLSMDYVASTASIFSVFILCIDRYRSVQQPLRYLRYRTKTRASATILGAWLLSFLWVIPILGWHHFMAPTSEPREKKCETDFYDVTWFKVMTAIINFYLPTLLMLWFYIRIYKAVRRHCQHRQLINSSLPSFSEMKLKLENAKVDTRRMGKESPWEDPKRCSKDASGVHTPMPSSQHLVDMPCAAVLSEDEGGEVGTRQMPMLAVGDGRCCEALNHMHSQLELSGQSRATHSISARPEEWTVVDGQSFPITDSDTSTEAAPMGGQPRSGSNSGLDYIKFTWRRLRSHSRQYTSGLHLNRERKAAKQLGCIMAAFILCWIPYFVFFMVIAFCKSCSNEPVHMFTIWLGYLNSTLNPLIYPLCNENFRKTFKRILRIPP
Sequence of Histamine H1 receptor (Cavia porcellus) (P31389 whole entry): as above
Sequence of Histamine H3 receptor (Q9JI35 whole entry): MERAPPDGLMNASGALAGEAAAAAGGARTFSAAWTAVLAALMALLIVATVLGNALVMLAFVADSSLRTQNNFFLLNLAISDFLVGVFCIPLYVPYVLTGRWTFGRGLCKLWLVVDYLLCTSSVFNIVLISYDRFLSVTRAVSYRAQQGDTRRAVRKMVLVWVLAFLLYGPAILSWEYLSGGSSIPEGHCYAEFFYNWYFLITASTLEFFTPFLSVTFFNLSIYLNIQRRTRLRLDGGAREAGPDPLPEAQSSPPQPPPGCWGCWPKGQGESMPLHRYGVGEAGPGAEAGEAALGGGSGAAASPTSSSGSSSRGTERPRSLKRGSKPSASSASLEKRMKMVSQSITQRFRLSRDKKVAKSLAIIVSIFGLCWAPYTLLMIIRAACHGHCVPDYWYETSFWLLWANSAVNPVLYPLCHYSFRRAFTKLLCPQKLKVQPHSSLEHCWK
Sequence of Histamine H2 receptor (Cavia porcellus) (P47747 whole entry): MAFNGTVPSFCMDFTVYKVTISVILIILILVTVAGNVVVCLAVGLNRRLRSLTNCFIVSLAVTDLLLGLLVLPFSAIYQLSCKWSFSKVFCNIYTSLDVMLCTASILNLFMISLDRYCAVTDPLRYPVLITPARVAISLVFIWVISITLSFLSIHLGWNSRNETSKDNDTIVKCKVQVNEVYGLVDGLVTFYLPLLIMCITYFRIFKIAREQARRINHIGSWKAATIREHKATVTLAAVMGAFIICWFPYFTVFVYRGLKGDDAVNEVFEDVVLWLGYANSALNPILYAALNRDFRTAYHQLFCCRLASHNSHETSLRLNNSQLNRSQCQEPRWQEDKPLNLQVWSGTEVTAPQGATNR
Sequence of Muscarinic acetylcholine receptor M3 (Q8VH26 whole entry): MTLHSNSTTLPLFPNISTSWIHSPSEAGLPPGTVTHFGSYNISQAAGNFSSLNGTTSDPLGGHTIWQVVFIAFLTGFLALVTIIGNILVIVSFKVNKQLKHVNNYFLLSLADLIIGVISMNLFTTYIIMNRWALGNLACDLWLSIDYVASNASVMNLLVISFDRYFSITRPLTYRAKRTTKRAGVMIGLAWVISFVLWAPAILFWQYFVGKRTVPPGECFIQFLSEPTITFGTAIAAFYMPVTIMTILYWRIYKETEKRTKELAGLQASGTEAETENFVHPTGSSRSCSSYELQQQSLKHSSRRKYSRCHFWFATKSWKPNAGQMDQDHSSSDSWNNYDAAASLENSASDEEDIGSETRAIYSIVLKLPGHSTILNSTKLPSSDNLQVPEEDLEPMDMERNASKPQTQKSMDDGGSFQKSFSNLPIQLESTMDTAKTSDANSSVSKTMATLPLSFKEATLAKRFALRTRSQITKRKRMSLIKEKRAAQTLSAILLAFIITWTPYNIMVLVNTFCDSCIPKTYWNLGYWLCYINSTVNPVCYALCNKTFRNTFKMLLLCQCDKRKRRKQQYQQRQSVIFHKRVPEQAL

SMILES	Emax [1] [%]	Emax [2] [%]	Emax [3] [%]	Emax [4] [%]	pKp [5]	Kb [6] [nM]	Relative potency [7] [%]	pD2 [8]	Kb (Histamine H3 receptor) [nM]	Kb (Histamine H1 receptor [9]) [nM]	Kb (Histamine H1 receptor [10]) [nM]	Relative potency [11] [%]	Emax [12] [%]	Emax [13] [%]	Emax [14] [%]
NCCc1c[nH]cn1	100	100	100	100											
CNCCc1c[nH]c(-c2cccc(Br)c2)n1	75	71	76	95	6.17	112000	109	3.86	11700	0.741	0.977	43			
CN(C)CCc1c[nH]c(-c2cccc(Br)c2)n1	49	58	58	81	6.2	64600	87	4.74	1450	0.708	1.15	31			
NCCc1c[nH]c(-c2cccc(Br)c2)n1			64	100	5.97	155000			6310	0.741	1.26				
NCCc1cnc(-c2cccc(C(F)(F)F)c2)[nH]1						107000			6170	0.891	0.977				
FC(F)(F)c1cccc(-c2nc(CCNC3CC3)c[nH]2)c1		20		36	6.12		28	4.36		0.741					

Continued, values first:

Emax [1] [%]	Emax [2] [%]	Emax [3] [%]	Emax [4] [%]	pKp [5]	Kb [6] [nM]	Relative potency [7] [%]	pD2 [8]	Kb (Histamine H3 receptor) [nM]	Kb (Histamine H1 receptor [9]) [nM]	Kb (Histamine H1 receptor [10]) [nM]	Relative potency [11] [%]	Emax [12] [%]	Emax [13] [%]	Emax [14] [%]	SMILES
66	77	59	97	6.47	115000	174	4.04	4370	0.912	0.832	217				CNCCc1c[nH]c(-c2cccc(C(F)(F)F)c2)n1
		80	100	6.23		128	3.48				94	80	65	97	NCCc1c[nH]c(-c2cccc(C(F)(F)F)c2)n1
64	67	54	88	6.39	26900	95	4.56	1120	1.2	1.41	169				CN(C)CCc1c[nH]c(-c2cccc(C(F)(F)F)c2)n1
	40		63	5.68	69200	30	4.55	2340	1.05						CCNCCc1c[nH]c(-c2cccc(C(F)(F)F)c2)n1
